molecular target: T1, recombinant full-length USP7 (Homo sapiens, UniProt Q93009); experiment: USP7-mediated ubiquitin-rhodamine cleavage assay; assay type: biochemical; conditions: recombinant full-length USP7 62 pM; ubiquitin-rhodamine 100 nM; 30-minute incubation with compound, 1 hour reaction at room temperature; read-out: Potency: USP7 IC50
T1 construct: A 25 μl reaction volume containing recombinant full-length USP7 (62 pM)
Summary of the method: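 Full-length recombinant USP7 (62 pM) in 20 mM HEPES pH 7.3, 150 mM NaCl, 1 mM TCEP, 125 μg/ml BSA, 1% DMSO, preincubated with compound 30 min at RT. Ubiquitin-rhodamine (100 nM final) cleaved 1 h at RT in the dark, stopped with acetic acid; rhodamine fluorescence read, IC50 by 4-parameter nonlinear fit.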

T1 sequence (Q93009 whole entry): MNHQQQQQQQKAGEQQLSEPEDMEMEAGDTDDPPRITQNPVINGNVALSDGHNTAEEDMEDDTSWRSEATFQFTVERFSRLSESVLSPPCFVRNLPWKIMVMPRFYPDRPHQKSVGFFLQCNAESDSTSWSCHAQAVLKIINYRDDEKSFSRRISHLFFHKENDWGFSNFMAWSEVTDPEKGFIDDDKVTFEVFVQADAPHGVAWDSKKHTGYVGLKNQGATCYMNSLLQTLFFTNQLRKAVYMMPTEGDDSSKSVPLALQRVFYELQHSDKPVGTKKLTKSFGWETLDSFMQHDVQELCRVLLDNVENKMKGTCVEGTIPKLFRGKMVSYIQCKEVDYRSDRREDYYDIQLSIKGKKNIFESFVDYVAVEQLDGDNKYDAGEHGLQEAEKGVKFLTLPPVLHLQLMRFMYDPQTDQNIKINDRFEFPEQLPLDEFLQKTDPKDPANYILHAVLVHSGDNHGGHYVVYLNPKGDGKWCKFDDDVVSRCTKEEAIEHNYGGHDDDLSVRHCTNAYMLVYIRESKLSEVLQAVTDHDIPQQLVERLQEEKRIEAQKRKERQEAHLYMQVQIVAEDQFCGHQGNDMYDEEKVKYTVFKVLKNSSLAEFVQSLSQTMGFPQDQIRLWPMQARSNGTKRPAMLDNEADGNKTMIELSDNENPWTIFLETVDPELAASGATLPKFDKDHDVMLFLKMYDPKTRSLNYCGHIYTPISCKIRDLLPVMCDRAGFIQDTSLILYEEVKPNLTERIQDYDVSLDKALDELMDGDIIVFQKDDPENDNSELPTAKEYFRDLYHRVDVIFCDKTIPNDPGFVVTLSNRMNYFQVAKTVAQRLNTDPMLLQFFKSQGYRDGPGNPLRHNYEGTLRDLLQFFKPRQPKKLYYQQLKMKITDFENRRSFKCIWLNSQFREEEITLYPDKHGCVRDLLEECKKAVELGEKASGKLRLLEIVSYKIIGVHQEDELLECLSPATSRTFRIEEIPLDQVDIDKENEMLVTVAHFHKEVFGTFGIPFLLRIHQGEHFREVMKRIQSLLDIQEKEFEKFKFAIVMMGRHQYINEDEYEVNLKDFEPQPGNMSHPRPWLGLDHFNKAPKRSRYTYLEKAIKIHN

| Compound | IC50 [nM] |
| --- | --- |
| Cc1cc(Cl)cc(-c2ccnc3cc(CO)sc23)c1OCC1(C)CNC1 [Example 17, (7-(5-Chloro-3-methyl-2-((3-methylazetidin-3-yl)methoxy)phenyl)thieno[3,2-b]pyridin-2-yl)methanol] | 1000 to 10000 |
| Cc1cc(Cl)cc(-c2ncnc3cc(CN4C(=O)c5ccccc5C4=O)sc23)c1OC1CCNCC1 [Example 202, 2-((4-(5-Chloro-3-methyl-2-(piperidin-4-yloxy)phenyl)thieno[3,2-d]pyrimidin-6-yl)methyl)isoindoline-1,3-dione] | < 1000 |
| Cc1cc(C#N)cc(-c2ncnc3cc(CN4C(=O)CCC4=O)sc23)c1O[C@@H]1CNC[C@@H]1F [Example 109, 3-(6-((2,5-Dioxopyrrolidin-1-yl)methyl)thieno[3,2-d]pyrimidin-4-yl)-4-(((3R,4S)-4-fluoropyrrolidin-3-yl)oxy)-5-methylbenzonitrile] | < 1000 |
| Cc1cc(Cl)cc(-c2ncnc3cc(CN4C(=O)CSC4=O)sc23)c1O[C@H]1CCCNC1 [Example 250, (S)-3-((4-(5-Chloro-3-methyl-2-(piperidin-3-yloxy)phenyl)thieno[3,2-d]pyrimidin-6-yl)methyl)thiazolidine-2,4-dione] | < 1000 |
| Cc1cc(Cl)cc(-c2ccnc3cc(CN4C(=O)C5CC5C4=O)sc23)c1O[C@@H]1C[C@H]2CN[C@@H]1C2 (stereo partly drawn) [Example 315, 3-[[7-[2-[[(1S,4R,5R)-3-azabicyclo[2.2.1]heptan-5-yl]oxy]-5-chloro-3-methyl-phenyl]thieno[3,2-b]pyridin-2-yl]methyl]-3-azabicyclo[3.1.0]hexane-2,4-dione] | < 1000 |

Other lines, results leading:

| IC50 [nM] | Compound |
| --- | --- |
| 10000 to 30000 | CCC(O)c1cc2nccc(-c3cc(Cl)cc(C)c3OC(C)C3CNC3)c2s1 (stereo not drawn) [Example 34, 1-(7-(2-(1-(Azetidin-3-yl)ethoxy)-5-chloro-3-methylphenyl)thieno[3,2-b]pyridin-2-yl)propan-1-ol] |
| < 1000 | Cc1cc(Cl)cc(-c2ccnc3cc(CN4C(=O)CCC4=O)sc23)c1O[C@@H]1CN(CCO)C[C@@H]1F [Example 302, 1-[[7-[5-chloro-2-[(3R,4S)-4-fluoro-1-(2-hydroxyethyl)pyrrolidin-3-yl]oxy-3-methyl-phenyl]thieno[3,2-b]pyridin-2-yl]methyl]pyrrolidine-2,5-dione] |
| < 1000 | Cc1cc(C#N)cc(-c2ccnc3cc(CN4C(=O)CCC4=O)sc23)c1OCC1(C)CNC1 [Example 46, 3-(2-((2,5-Dioxopyrrolidin-1-yl)methyl)thieno[3,2-b]pyridin-7-yl)-5-methyl-4-((3-methylazetidin-3-yl)methoxy)benzonitrile] |
| 1000 to 10000 | Cc1cc2nccc(-c3cc(Cl)ccc3OCC3CNC3)c2s1 [Example 28, 7-(2-(Azetidin-3-ylmethoxy)-5-chlorophenyl)-2-methylthieno[3,2-b]pyridine] |
| 1000 to 10000 | Cc1cc(Cl)cc(-c2ccnc3cc(CN4C(=O)CCCC4C(F)(F)F)sc23)c1O[C@@H]1CNC[C@@H]1F (stereo partly drawn) [Example 103, 1-((7-(5-Chloro-2-(((3R,4S)-4-fluoropyrrolidin-3-yl)oxy)-3-methylphenyl)thieno[3,2-b]pyridin-2-yl)methyl)-6-(trifluoromethyl)piperidin-2-one] |
| 1000 to 10000 | Cc1cc(Cl)cc(-c2ncnc3cc(CN4C(=O)CCCC4=O)sc23)c1OC1CCNCC1 [Example 259, 1-((4-(5-Chloro-3-methyl-2-(piperidin-4-yloxy)phenyl)thieno[3,2-d]pyrimidin-6-yl)methyl)piperidine-2,6-dione] |

same assay, conditions: recombinant full-length USP7 62 pM; ubiquitin-rhodamine 100 nM; 30-minute incubation, 1 hour reaction at room temperature; read-out: Potency (USP7 IC50)

| Compound | IC50 [nM] |
| --- | --- |
| Cc1cc(Cl)cc(-c2ccnc3cc(Cn4c(=O)ccn(CC(F)(F)F)c4=O)sc23)c1OC1CC2(COC2)C1 [Example 679, 3-[[7-[5-chloro-3-methyl-2-(2-oxaspiro[3.3]heptan-6-yloxy)phenyl]thieno[3,2-b]pyridin-2-yl]methyl]-1-(2,2,2-trifluoroethyl)pyrimidine-2,4-dione] | < 1000 |

same assay, conditions: recombinant full-length USP7 62 pM; ubiquitin-rhodamine 100 nM; 30-minute pre-incubation, 1 hour reaction at room temperature; read-out: Potency (USP7 IC50)

| Compound | IC50 [nM] |
| --- | --- |
| Cc1cc(Cl)cc(-c2ccnc3cc(Cn4c(=O)c(C)cn(C)c4=O)sc23)c1O[C@@H]1CNC[C@@H]1F [Example 480, 3-[[7-[5-chloro-2-[(3R,4S)-4-fluoropyrrolidin-3-yl]oxy-3-methyl-phenyl]thieno[3,2-b]pyridin-2-yl]methyl]-1,5-dimethyl-pyrimidine-2,4-dione] | < 1000 |
| CCN1CC[C@H](Oc2c(C)cc(Cl)cc2-c2ccnc3cc(Cn4c(=O)ccn(C)c4=O)sc23)[C@@H](F)C1 [Example 482, 3-[[7-[5-chloro-2-[[(3S,4S)-1-ethyl-3-fluoro-4-piperidyl]oxy]-3-methyl-phenyl]thieno[3,2-b]pyridin-2-yl]methyl]-1-methyl-pyrimidine-2,4-dione; 2,2,2-trifluoroacetic acid] | < 1000 |
| Cc1cc(Cl)cc(-c2ccncc2CCCN2C(=O)CCC2=O)c1OC1CNC[C@@H]1F (stereo partly drawn) [Example 409, 1-[3-[4-[5-chloro-2-[(4S)-4-fluoropyrrolidin-3-yl]oxy-3-methyl-phenyl]-3-pyridyl]propyl]pyrrolidine-2,5-dione; 2,2,2-trifluoroacetic acid] | 1000 to 10000 |
| Cc1cc(Cl)cc(-c2ncnc3cc(Cn4c(=O)ccn(CC(F)(F)F)c4=O)sc23)c1OC1CC(N)C1 (stereo not drawn) [Example 534, 3-[[4-[2-(3-aminocyclobutoxy)-5-chloro-3-methyl-phenyl]thieno[3,2-d]pyrimidin-6-yl]methyl]-1-(2,2,2-trifluoroethyl)pyrimidine-2,4-dione; 2,2,2-trifluoroacetic acid] | < 1000 |
| Cc1cc(Cl)cc(-c2ccnc3cc(Cn4c(=O)c(C)cn(C)c4=O)sc23)c1O[C@H]1CCCNC1 [Example 478, 3-[[7-[5-chloro-3-methyl-2-[[(3S)-3-piperidyl]oxy]phenyl]thieno[3,2-b]pyridin-2-yl]methyl]-1,5-dimethyl-pyrimidine-2,4-dione; 2,2,2-trifluoroacetic acid] | < 1000 |

Results, then the compound that gave them:

| IC50 [nM] | Compound |
| --- | --- |
| < 1000 | Cc1cc(C#N)cc(-c2ccnc3cc(Cn4c(=O)ccn(C)c4=O)sc23)c1OC1CCNCC1 [Example 454, 3-methyl-5-[2-[(3-methyl-2,6-dioxo-pyrimidin-1-yl)methyl]thieno[3,2-b]pyridin-7-yl]-4-(4-piperidyloxy)benzonitrile] |
| < 1000 | Cc1cc(Cl)cc(-c2ccnc3cc(Cn4c(=O)ccn(C)c4=O)sc23)c1OC1CCCN(CCC(F)(F)F)C1 (stereo not drawn) [Example 507, 3-[[7-[5-chloro-3-methyl-2-[[1-(3,3,3-trifluoropropyl)-3-piperidyl]oxy]phenyl]thieno[3,2-b]pyridin-2-yl]methyl]-1-methyl-pyrimidine-2,4-dione] |
| < 1000 | Cc1cc(C(F)(F)F)cc(-c2ccnc3cc(Cn4c(=O)[nH]cc(C)c4=O)sc23)c1O[C@@H]1CNC[C@@H]1F [Example 434, 3-[[7-[2-[(3R,4S)-4-fluoropyrrolidin-3-yl]oxy-3-methyl-5-(trifluoromethyl)phenyl]thieno[3,2-b]pyridin-2-yl]methyl]-5-methyl-1H-pyrimidine-2,4-dione] |
| < 1000 | Cc1cc(Cl)cc(-c2ccnc3cc(Cn4c(=O)ccn(CC(F)(F)F)c4=O)sc23)c1O[C@@H]1C[C@@H]2C[C@H]1CN2 [Example 637, 3-[[7-[2-[[(1S,4S,5R)-2-azabicyclo[2.2.1]heptan-5-yl]oxy]-5-chloro-3-methyl-phenyl]thieno[3,2-b]pyridin-2-yl]methyl]-1-(2,2,2-trifluoroethyl)pyrimidine-2,4-dione; 2,2,2-trifluoroacetic acid] |
